From patent US8575156B2, “Cyclic inhibitors of 11β-hydroxysteroid dehydrogenase 1” (Vitae Pharmaceuticals, Inc., priority 2007, dated 2013)
Read-outs that look alike come from different tables or passages of the source.

Biological target: 11β-HSD1 (Homo sapiens, UniProt P28845)
Test: biochemical
Conditions: for IC50: IC50 Range, Biological Test Example 1, microsomes from CHO cells overexpressing human 11β-HSD1; for inhibition at 0.1 µM: read-out: Average % inhibition at 100 nM, Biological Test Example 1, 100 nM compound
[1] = read-out: Average % inhibition at 111.1 nM, Biological Test Example 1, 111.1 nM compound

Chain of 11β-HSD1 (P28845 whole entry): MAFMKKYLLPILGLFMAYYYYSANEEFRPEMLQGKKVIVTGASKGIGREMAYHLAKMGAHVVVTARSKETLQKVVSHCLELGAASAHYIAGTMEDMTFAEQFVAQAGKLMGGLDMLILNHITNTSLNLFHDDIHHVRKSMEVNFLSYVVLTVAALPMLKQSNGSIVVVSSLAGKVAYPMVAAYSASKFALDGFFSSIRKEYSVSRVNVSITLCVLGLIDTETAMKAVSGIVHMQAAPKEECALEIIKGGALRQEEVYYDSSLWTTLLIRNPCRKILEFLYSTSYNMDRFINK

SMILES	IC50 [nM]	inhibition at 0.1 µM [%]	inhibition at 0.1111 µM [1] [%]	inhibition at 0.1111 µM (read-out: Average % inhibition at 111.1 nM) [%]
O=C1OC(CCO)(c2ccccc2F)CCN1c1ccc(F)c(-c2ccc(F)cc2)c1 (stereo not drawn) [EXAMPLE 67, 3-(4′,6-difluorobiphenyl-3-yl)-6-(2-fluorophenyl)-6-(2-hydroxyethyl)-1,3-oxazinan-2-one]	< 100	93.1	96.6	
O=C1OC(CCO)(c2ccccc2)CCN1c1cccc(-c2ccc(F)cc2Cl)c1 (stereo not drawn) [EXAMPLE 68, 3-(2′-chloro-4′-fluorobiphenyl-3-yl)-6-(2-hydroxyethyl)-6-phenyl-1,3-oxazinan-2-one]	< 100	92	92.9	
O=C1OC(CCO)(c2ccccc2)CCN1c1cccc(-c2c(Cl)cccc2Cl)c1 (stereo not drawn) [EXAMPLE 69, 3-(2′,6′-dichlorobiphenyl-3-yl)-6-(2-hydroxyethyl)-6-phenyl-1,3-oxazinan-2-one]	< 100	94.7	94.8	
O=C(O)CC1(c2ccccc2)CCN(c2cccc(-c3ccc(F)cc3F)c2)C(=O)O1 (stereo not drawn) [EXAMPLE 70, 2-(3-(2′,4′-difluorobiphenyl-3-yl)-2-oxo-6-phenyl-1,3-oxazinan-6-yl)acetic acid]	100 to 1000		9.3	
CC1(c2ccccc2)CCN(Cc2cccc(Br)c2)C(=O)O1 (stereo not drawn) [EXAMPLE 71, 3-(3-bromobenzyl)-6-methyl-6-phenyl-1,3-oxazinan-2-one]	100 to 1000			
CC1(c2ccccc2)CCN(Cc2ccccc2Br)C(=O)O1 (stereo not drawn) [EXAMPLE 72, 3-(2-bromobenzyl)-6-methyl-6-phenyl-1,3-oxazinan-2-one]	< 100		77.5	
O=C1OC(CCO)(c2ccccc2)CCN1c1cccc(Br)c1 (stereo not drawn) [EXAMPLE 74, 3-(3-bromophenyl)-6-(2-hydroxyethyl)-6-phenyl-1,3-oxazinan-2-one]	< 100		70	
NCCC1(c2ccccc2)CCN(c2cccc(-c3ccc(F)cc3F)c2)C(=O)O1 (stereo not drawn) [EXAMPLE 75, 6-(2-aminoethyl)-3-(2′,4′-difluorobiphenyl-3-yl)-6-phenyl-1,3-oxazinan-2-one]	< 100		57.8	
NC(=O)CC1(c2ccccc2)CCN(c2cccc(-c3ccc(F)cc3F)c2)C(=O)O1 (stereo not drawn) [EXAMPLE 76, 2-(3-(2′,4′-difluorobiphenyl-3-yl)-2-oxo-6-phenyl-1,3-oxazinan-6-yl)acetamide]	< 100	81		
O=C1OC(CC(O)CO)(c2ccccc2)CCN1c1cccc(-c2ccc(F)cc2F)c1 (stereo not drawn) [EXAMPLE 77, 3-(2′,4′-difluorobiphenyl-3-yl)-6-(2,3-dihydroxypropyl)-6-phenyl-1,3-oxazinan-2-one]	< 100	88.7	89.2	
CC1(c2cccc(Cl)c2)CCN(c2cccc(-c3ccccc3)c2)C(=O)O1 (stereo not drawn) [EXAMPLE 79, 3-(biphenyl-3-yl)-6-(3-chlorophenyl)-6-methyl-1,3-oxazinan-2-one]	< 100		75.3	
CC1(c2ccccn2)CCN(c2cccc(-c3ccc(F)cc3F)c2)C(=O)O1 (stereo not drawn) [EXAMPLE 80, 3-(2′,4′-difluorobiphenyl-3-yl)-6-methyl-6-(pyridin-2-yl)-1,3-oxazinan-2-one]	< 100			77.8
CC1(c2ccccc2)CCN(c2cccc(Oc3ccccc3)c2)C(=O)O1 (stereo not drawn) [EXAMPLE 81, 6-methyl-3-(3-phenoxyphenyl)-6-phenyl-1,3-oxazinan-2-one]	< 100		72.2	
COc1cccc([C@H](C)N2CCC(C)(c3ccccc3)OC2=O)c1 (stereo partly drawn) [EXAMPLE 84, 3-((S)-1-(3-methoxyphenyl)ethyl)-6-methyl-6-phenyl-1,3-oxazinan-2-one]	< 100		94.6	
COc1ccc([C@H](C)N2CCC(C)(c3ccccc3)OC2=O)cc1 (stereo partly drawn) [EXAMPLE 85, 3-((S)-1-(4-methoxyphenyl)ethyl)-6-methyl-6-phenyl-1,3-oxazinan-2-one]	< 100		102	
Cc1ccccc1C1(C)CCN([C@@H](C)c2ccccc2)C(=O)O1 (stereo partly drawn) [EXAMPLE 86, 6-methyl-3-((S)-1-phenylethyl)-6-o-tolyl-1,3-oxazinan-2-one]	< 100		85.7	
Cc1cccc(C2(C)CCN([C@@H](C)c3ccccc3)C(=O)O2)c1 (stereo partly drawn) [EXAMPLE 87, 6-methyl-3-((S)-1-phenylethyl)-6-m-tolyl-1,3-oxazinan-2-one]	< 100			
Cc1ccc(C2(C)CCN([C@@H](C)c3ccccc3)C(=O)O2)cc1 (stereo partly drawn) [EXAMPLE 88, 6-methyl-3-((S)-1-phenylethyl)-6-p-tolyl-1,3-oxazinan-2-one]	< 100		97.1	

SMILES	IC50 [nM]	inhibition at 0.1 µM [%]	inhibition at 0.1111 µM [1] [%]	inhibition at 0.1111 µM (read-out: Average % inhibition at 111.1 nM) [%]
C[C@@H](c1cccc(O)c1)N1CCC(C)(c2ccccc2)OC1=O (stereo partly drawn) [EXAMPLE 89, 3-((S)-1-(3-hydroxyphenyl)ethyl)-6-methyl-6-phenyl-1,3-oxazinan-2-one]	< 100		71.4	
CSc1ccc(C2(C)CCN([C@@H](C)c3ccccc3)C(=O)O2)cc1 (stereo partly drawn) [EXAMPLE 90, 6-methyl-6-(4-(methylthio)phenyl)-3-((S)-1-phenylethyl)-1,3-oxazinan-2-one]	< 100		83.1	
CCOC(=O)COc1cccc([C@H](C)N2CCC(C)(c3ccccc3)OC2=O)c1 (stereo partly drawn) [EXAMPLE 91, ethyl 2-(3-((1S)-1-(6-methyl-2-oxo-6-phenyl-1,3-oxazinan-3-yl)ethyl)phenoxy)acetate]	100 to 1000		39.8	
C[C@@H](c1ccccc1)N1CCC(C)(c2ccc(CN3CCOCC3)cc2)OC1=O (stereo partly drawn) [EXAMPLE 92, 6-methyl-6-(4-(morpholinomethyl)phenyl)-3-((S)-1-phenylethyl)-1,3-oxazinan-2-one]	100 to 1000		35	
C=CCC1(c2ccc(F)cc2)CCN([C@@H](C)c2ccccc2)C(=O)O1 (stereo partly drawn) [EXAMPLE 95, 6-allyl-6-(4-fluorophenyl)-3-((S)-1-phenylethyl)-1,3-oxazinan-2-one]	< 100		97.3	
O=C1OC(CCO)(c2ccccc2)CCN1c1ccc(F)c(-c2ccc(F)cc2)c1 (stereo not drawn) [EXAMPLE 96, 3-(4′,6-difluorobiphenyl-3-yl)-6-(2-hydroxyethyl)-6-phenyl-1,3-oxazinan-2-one]	< 100		91.9	
CC(=O)NCCC1(c2ccccc2)CCN(c2cccc(-c3ccc(F)cc3F)c2)C(=O)O1 (stereo not drawn) [EXAMPLE 98, N-(2-(3-(2′,4′-difluorobiphenyl-3-yl)-2-oxo-6-phenyl-1,3-oxazinan-6-yl)ethyl)acetamide]	< 100		73.4	
CS(=O)(=O)NCCC1(c2ccccc2)CCN(c2cccc(-c3ccc(F)cc3F)c2)C(=O)O1 (stereo not drawn) [EXAMPLE 99, N-(2-(3-(2′,4′-difluorobiphenyl-3-yl)-2-oxo-6-phenyl-1,3-oxazinan-6-yl)ethyl)methanesulfonamide]	< 100		75.3	
O=C1OC(CCO)(c2ccc(F)cc2)CCN1c1ccc(F)c(-c2ccc(F)cc2Cl)c1 (stereo not drawn) [EXAMPLE 100, 3-(2′-chloro-4′,6-difluorobiphenyl-3-yl)-6-(4-fluorophenyl)-6-(2-hydroxyethyl)-1,3-oxazinan-2-one]	< 100		93.7	
O=C1OC(CCO)(c2ccccc2)CCN1c1ccc(F)c(-c2ccc(F)cc2Cl)c1 (stereo not drawn) [EXAMPLE 101, 3-(2′-chloro-4′,6-difluorobiphenyl-3-yl)-6-(2-hydroxyethyl)-6-phenyl-1,3-oxazinan-2-one]	< 100		84.4	
O=C1OC(CCO)(c2ccc(F)cc2)CCN1c1cccc(-c2ccc(F)cc2)n1 (stereo not drawn) [EXAMPLE 103, 6-(4-fluorophenyl)-3-(6-(4-fluorophenyl)pyridin-2-yl)-6-(2-hydroxyethyl)-1,3-oxazinan-2-one]	< 100		86.9	
O=C1OC(CCO)(c2ccccc2F)CCN1c1cccc(-c2ccc(F)cc2)n1 (stereo not drawn) [EXAMPLE 104, 6-(2-fluorophenyl)-3-(6-(4-fluorophenyl)pyridin-2-yl)-6-(2-hydroxyethyl)-1,3-oxazinan-2-one]	< 100		85.7	
O=C1OC(CCO)(c2ccc(F)cc2)CCN1c1ccc(F)c(-c2ccc(F)cc2F)c1 (stereo not drawn) [EXAMPLE 105, 6-(4-fluorophenyl)-6-(2-hydroxyethyl)-3-(2′,4′,6-trifluorobiphenyl-3-yl)-1,3-oxazinan-2-one]	< 100		87.4	
O=C1OC(CCO)(c2ccccc2F)CCN1c1ccc(F)c(-c2ccc(F)cc2F)c1 (stereo not drawn) [EXAMPLE 106, 6-(2-fluorophenyl)-6-(2-hydroxyethyl)-3-(2′,4′,6-trifluorobiphenyl-3-yl)-1,3-oxazinan-2-one]	< 100		88.7	
O=C1OC(CCO)(c2ccccc2)CCN1c1cccc(-c2ccc(F)cc2F)n1 (stereo not drawn) [EXAMPLE 107, 3-(6-(2,4-difluorophenyl)pyridin-2-yl)-6-(2-hydroxyethyl)-6-phenyl-1,3-oxazinan-2-one]	< 100	90.9	97	
O=C1OC(CCO)(c2ccc(F)cc2)CCN1c1cccc(-c2ccc(F)cc2F)n1 (stereo not drawn) [EXAMPLE 108, 3-(6-(2,4-difluorophenyl)pyridin-2-yl)-6-(4-fluorophenyl)-6-(2-hydroxyethyl)-1,3-oxazinan-2-one]	< 100		55.4	
O=C1OC(CCO)(c2ccccc2)CCN1c1cccc(-c2ccc(F)cc2Cl)n1 (stereo not drawn) [EXAMPLE 116, 3-(6-(2-chloro-4-fluorophenyl)pyridin-2-yl)-6-(2-hydroxyethyl)-6-phenyl-1,3-oxazinan-2-one]	< 100		97.6	
CC(C)(O)CC1(c2ccccc2)CCN(c2cccc(-c3ccc(F)cc3F)c2)C(=O)O1 (stereo not drawn) [EXAMPLE 117, 3-(2′,4′-difluorobiphenyl-3-yl)-6-(2-hydroxy-2-methylpropyl)-6-phenyl-1,3-oxazinan-2-one]	< 100		82.8	
